From patent publication US20230310352A1, “NOVEL COMPOSITIONS AND METHODS FOR THE TREATMENT OF LUNG FIBROSIS” (LAURENT PHARMACEUTICALS INC., priority 2020, published 2023)
Entries after “also recorded” stand apart in the source; their conditions may differ.

Tests used:
[1] = test system: Normal human lung fibroblast cells (NHLF cells, ATCC CRL-7000); experiment: α-SMA protein by ELISA after TGF-β1 exposure in NHLF; format: cell-based; conditions: TGF-β1 2 ng/mL + fenretinide 1, 2, 3, 4 μM, 3 days
Description: NHLF cells were incubated for 3 days at 37° C. and treated with TGF-β1 (2 ng/mL) or TGF-β1 (2 ng/mL)+fenretinide (1, 2, 3, 4 μM). At the end of the 3 day-treatment period, media was collected in identified tubes, centrifuged at 2,000×g for 20 minutes and stored at −80° C. Cells were collected using trypsin, transferred in identified tubes and centrifuged at 1,000×g for 5 minutes. Cells were then washed twice in phosphate buffered saline (PBS) 1X prior to be resuspended in ELISA lysis buffer. α-SMA protein contents were determined using Abcam ELISA detection kit (Ab240678). The experiment was performed in quadruplicate.

[2] = test system: bleomycin-induced lung fibrosis; experiment: Intratracheal bleomycin mouse model of pulmonary fibrosis (28-day model); format: in vivo, C57BL/6N mice; conditions: Day 28; oral once daily Day 7 to Day 28; fenretinide 10 mg/kg (as LAU-7b SDI), pirfenidone 100 mg/kg
Description: Oral administration of a solid, amorphous dispersion formulation of fenretinide (LAU-7b SDI) was provided as a treatment for reduction of pulmonary fibrosis, in a mouse model of lung fibrosis induced via a single intratracheal administration of bleomycin, for 21 days. The LAU-7b SDI formulation was obtained by spray drying and contains fenretinide in amorphous form in a solid dispersion comprising a matrix polymer, based on the following formula: 40% fenretinide, 59.6% povidone (KOLLIDON® 30), 0.24% butylated hydroxyanisole (BHA) and 0.16% butylated hydroxytoluene (BHT).
Male C57BL/6N mice from Charles River Laboratories, 10-12 weeks of age, weighing around 20-25 g, at the time of their enrolment, received 50 μL of bleomycin sulfate (2.0 mg/kg) by a single intratracheal instillation on Day 1 of the study to induce lung fibrosis. The sham group received an equivalent volume of 0.9% saline. On Day 7 postbleomycin instillation, the animals were randomized in groups of animals based on their body weight loss and enhanced pause airway resistance estimate (PenH value), while the sham group had 6 mice. Oral dosing by gavage (10 mL/kg) with the vehicle (sham and BLM control groups), the test articles (fenretinide 10 mg/kg), and the reference compound (pirfenidone 100 mg/kg) were administered once daily starting from Day 7 to Day 28. Two hours following the last dose on Day 28, all mice were sacrificed, the lungs of each mouse harvested, flushed with 0.9% NaCl and inflated with 10% neutral buffered formalin solution. After embedding and mounting of the lung tissue (transversal slices of 5 μm thickness), the histology slides were stained with hematoxylin/eosin for the Ashcroft score evaluation by a treatment-blinded pathologist and with Sirius red staining for automated fibrosis quantification (Biocelvia, France).
The key endpoints evaluated in this study were Ashcroft score, pulmonary foci and collagen content obtained by histological assessment of the lung tissue at the end of the study. Statistical analysis was made on normally distributed data by one-way ANOVA followed by multiple comparisons (Fisher's LSD post hoc test) to assess the difference between the groups, using Graph Pad Prism Software version 8.0 (San Diego, CA, USA). Differences were considered statistically significant when P values were p<0.05 (*), or p<0.01 (**) or p<0.001 (***).
Ashcroft scale for the evaluation of bleomycin-induced lung fibrosis is the analysis of stained histological samples by visual assessment. The Ashcroft score was assessed in lung tissue collected on Day 28 by treatment-blinded pathologist on H&E stained lung tissue histology slides (3 cross sections/animal) and using the modified Ashcroft scale. Briefly, each lung section was scanned at a magnification of x100 (H&E staining), read by a blinded examiner, and graded from 0 (normal lung) to 8 (total fibrotic obliteration of the field). Criteria for grading lung fibrosis in Ashcroft scale are as follows: Grade 0=normal lung; Grade 1=minimal fibrous thickening of alveolar or bronchiolar walls; Grade 3=moderate thickening of walls without obvious damage to lung architecture; Grade 5=increased fibrosis with definitive damage to lung structure and formation of fibrous bands or small fibrous masses; Grade 7=severe distortion of structure and large fibrous area; Grade 8=total fibrous obliteration of lung fields. The mean value of the grades obtained for each of the three sections was used as the Ashcroft score. Ashcroft score, using the modified scale, is a reliable and reproducible method of visual quantification of bleomycin induced lung fibrosis in H&E stained histological lung sections based on description of the general morphology of alveolar septa and lung structure. […]

CC1=C(/C=C/C(C)=C/C=C/C(C)=C/C(=O)Nc2ccc(O)cc2)C(C)(C)CCC1 [fenretinide, 4-hydroxyphenyl retinamide]
induction of fibrotic marker α-SMA protein levels (ELISA) [1]: attenuate and, at certain doses, completely abolish; also recorded: attenuates in a dose-dependent manner; also recorded: dose-dependent attenuation | Ashcroft score vs BLM control [2]: reduced significantly (p<0.05) | percentage of collagen content in lung tissue, automated Sirius red analysis, vs BLM control [2]: significantly reduced | percentage of pulmonary foci (fibrotic tissue), automated Sirius red analysis, vs BLM control [2]: significant reduction
